# Assay results published in patent US9943497B2, “Pharmaceutical composition for preventing or treating pulmonary fibrosis” (GACHON UNIVERSITY OF INDUSTRY-ACADEMIC COOPERATION …, priority 2013, dated 2018).
# Columns and labels:
# Format in all cases: in vivo
# fibronectin = experiment: Western blot analysis for fibronectin in lung tissue and serum samples; conditions: BLM-treated C57BL/6 mice; oral, every day; SFN 50 μg/kg, Met 25 mg/kg, singly or together; lung tissue and serum at 28 days; vs BLM alone
# Procedure: (§1) In detail, C57BL/6 mice were administered with combination of BLM, SFN and metformin (Met) which is one of BG agents, and control groups and experimental groups were prepared: a control group that was orally administered with sterile physiological saline (SA) and orally administered with distilled water; an experimental group (BLM) that was administered with BLM and orally administered with distilled water; an experimental group (BLM+SFN) that was administered with BLM and orally administered with 50 μg/kg of SFN; an experimental group (BLM+MET) that was administered with BLM and orally administered with 25 mg/hg of Met; and an experimental group (BLM+SFN+MET) that was administered with BLM and orally administered with 50 μg/kg of SFN and 25 mg/kg of Met. At this time, C57BL/6 mice were administered with 2.5 unit of BLM by intratracheal injection under anesthesia at the experiment initiation day and 14 days, and the mice were administered with SFN and Met every day during the experimental period from the next day after the first administration of BLM, and the mice of the control group and experimental groups were raised for 28 days after the experiment initiation day.
# (§2) The lung tissues and serum samples were obtained from these animal models. […]
# [1] = test system: pulmonary fibrosis induced by administration of Bleomycin (BLM); experiment: Histological examination (H&E and Masson-trichrome staining, Image J) of lung tissue in pulmonary fibrosis-induced animals; conditions: BLM-treated C57BL/6 mice; oral, every day; SFN 50 μg/kg, Met 25 mg/kg, singly or together; lung tissue at 28 days; vs BLM alone
# Procedure: In detail, C57BL/6 mice were administered with combination of BLM, SFN and metformin (Met) which is one of BG agents, and control groups and experimental groups were prepared: a control group that was orally administered with sterile physiological saline (SA) and orally administered with distilled water; an experimental group (BLM) that was administered with BLM and orally administered with distilled water; an experimental group (BLM+SFN) that was administered with BLM and orally administered with 50 μg/kg of SFN; an experimental group (BLM+MET) that was administered with BLM and orally administered with […] of Met; and an experimental group (BLM+SFN+MET) that was administered with BLM and orally administered with 50 μg/kg of SFN and 25 mg/kg of Met. […] The fixed lung tissues were stained by the H&E staining method and the Masson-trichrome staining method, and the stained lung tissues were evaluated by Image J assay to assess and compare lung damage and lung fibrosis (FIGS. 1a to 1c).
# [2] = test system: AGE (advanced glycation end products); experiment: Western blot analysis, Ponceau staining and ELISA for AGE in lung tissue and serum samples; conditions: BLM-treated C57BL/6 mice; oral, every day; SFN 50 μg/kg, Met 25 mg/kg, singly or together; lung tissue and serum at 28 days; vs BLM alone
# Procedure: as §1, §2
# [3] = test system: TGF-β1 (transforming growth factor β1); experiment: Western blot analysis for TGF-β1 in lung tissue and serum samples; conditions: BLM-treated C57BL/6 mice; oral, every day; SFN 50 μg/kg, Met 25 mg/kg, singly or together; lung tissue and serum at 28 days; vs BLM alone
# Procedure: as §1
# The animal models of the control group and the experimental groups that were prepared in Example 1 and raised for 28 days were sacrificed. The lung tissues and serum samples were obtained from these animal models. […]
SMILES,fibronectin levels (Western blot) (fibronectin),"level of fibrous tissue (damaged fibrous regions, H&E and Masson-trichrome staining) [1]","AGE level (Western blot, ELISA) [2]",TGF-β1 levels (Western blot) [3]
"CN(C)C(=N)N=C(N)N [Met, metformin]",reduced fibronectin levels,slightly reduced,slightly reduced AGE level,reduced TGF-β1 levels
"C[S+]([O-])CCCCN=C=S (centres unmarked) [SFN, sulforaphane]",reduced fibronectin levels,statistically significant reduction,reduced,reduced TGF-β1 levels
